Laboratory results: patent US9604961B2, “Histone demethylase inhibitors” (Celgene Quanticel Research, Inc., priority 2012, dated 2017)

Legend:
Format in all cases: biochemical
Jarid1A = Jarid1A (Homo sapiens (Human), UniProt P29375); experiment: Jarid1A in vitro enzyme inhibition assay (TR-FRET)
Text: The enzymatic assay of Jarid1A activity is based upon Time Resolved-Fluorescence Resonance Energy Transfer (TR-FRET) detection.

Jarid1B = Jarid1B (Homo sapiens (Human), UniProt Q9UGL1); experiment: Jarid1B in vitro enzyme inhibition assay (TR-FRET)
JMJD2C = JMJD2C (Homo sapiens (Human), UniProt Q9H3R0); experiment: JMJD2C in vitro enzyme inhibition assay (TR-FRET)
JMJD2C, sequence (Q9H3R0 2-372): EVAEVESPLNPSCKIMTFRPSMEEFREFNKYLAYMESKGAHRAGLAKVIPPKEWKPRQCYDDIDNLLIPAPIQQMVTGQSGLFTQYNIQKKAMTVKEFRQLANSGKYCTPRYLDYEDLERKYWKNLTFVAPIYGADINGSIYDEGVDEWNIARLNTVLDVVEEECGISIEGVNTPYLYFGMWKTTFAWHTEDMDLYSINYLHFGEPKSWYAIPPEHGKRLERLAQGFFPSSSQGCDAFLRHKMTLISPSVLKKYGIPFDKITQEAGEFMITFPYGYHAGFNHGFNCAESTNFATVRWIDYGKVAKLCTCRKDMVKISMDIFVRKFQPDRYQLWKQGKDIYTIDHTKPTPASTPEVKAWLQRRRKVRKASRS

Jarid1B, sequence (Q9UGL1 2-751): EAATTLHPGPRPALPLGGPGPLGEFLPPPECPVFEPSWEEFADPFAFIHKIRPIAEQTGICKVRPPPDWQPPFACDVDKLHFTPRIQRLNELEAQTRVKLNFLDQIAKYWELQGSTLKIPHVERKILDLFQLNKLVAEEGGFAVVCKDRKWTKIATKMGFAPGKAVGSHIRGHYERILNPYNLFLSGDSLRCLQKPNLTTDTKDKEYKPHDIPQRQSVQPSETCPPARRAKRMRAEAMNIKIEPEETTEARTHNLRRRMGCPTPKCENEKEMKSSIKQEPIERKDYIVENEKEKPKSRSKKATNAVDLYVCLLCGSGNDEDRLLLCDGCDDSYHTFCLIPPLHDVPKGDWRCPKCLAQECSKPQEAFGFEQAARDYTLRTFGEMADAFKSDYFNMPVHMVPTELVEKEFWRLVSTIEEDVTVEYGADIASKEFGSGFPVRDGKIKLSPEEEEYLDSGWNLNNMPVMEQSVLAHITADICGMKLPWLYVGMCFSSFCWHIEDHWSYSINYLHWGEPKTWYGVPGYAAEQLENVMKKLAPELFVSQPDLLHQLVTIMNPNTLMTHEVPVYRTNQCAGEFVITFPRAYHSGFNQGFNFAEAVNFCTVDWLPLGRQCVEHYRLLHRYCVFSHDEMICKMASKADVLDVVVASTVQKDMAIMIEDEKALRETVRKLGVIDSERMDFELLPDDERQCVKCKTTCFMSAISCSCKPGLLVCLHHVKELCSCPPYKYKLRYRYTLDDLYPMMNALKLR
Jarid1A, sequence (P29375 1-1090): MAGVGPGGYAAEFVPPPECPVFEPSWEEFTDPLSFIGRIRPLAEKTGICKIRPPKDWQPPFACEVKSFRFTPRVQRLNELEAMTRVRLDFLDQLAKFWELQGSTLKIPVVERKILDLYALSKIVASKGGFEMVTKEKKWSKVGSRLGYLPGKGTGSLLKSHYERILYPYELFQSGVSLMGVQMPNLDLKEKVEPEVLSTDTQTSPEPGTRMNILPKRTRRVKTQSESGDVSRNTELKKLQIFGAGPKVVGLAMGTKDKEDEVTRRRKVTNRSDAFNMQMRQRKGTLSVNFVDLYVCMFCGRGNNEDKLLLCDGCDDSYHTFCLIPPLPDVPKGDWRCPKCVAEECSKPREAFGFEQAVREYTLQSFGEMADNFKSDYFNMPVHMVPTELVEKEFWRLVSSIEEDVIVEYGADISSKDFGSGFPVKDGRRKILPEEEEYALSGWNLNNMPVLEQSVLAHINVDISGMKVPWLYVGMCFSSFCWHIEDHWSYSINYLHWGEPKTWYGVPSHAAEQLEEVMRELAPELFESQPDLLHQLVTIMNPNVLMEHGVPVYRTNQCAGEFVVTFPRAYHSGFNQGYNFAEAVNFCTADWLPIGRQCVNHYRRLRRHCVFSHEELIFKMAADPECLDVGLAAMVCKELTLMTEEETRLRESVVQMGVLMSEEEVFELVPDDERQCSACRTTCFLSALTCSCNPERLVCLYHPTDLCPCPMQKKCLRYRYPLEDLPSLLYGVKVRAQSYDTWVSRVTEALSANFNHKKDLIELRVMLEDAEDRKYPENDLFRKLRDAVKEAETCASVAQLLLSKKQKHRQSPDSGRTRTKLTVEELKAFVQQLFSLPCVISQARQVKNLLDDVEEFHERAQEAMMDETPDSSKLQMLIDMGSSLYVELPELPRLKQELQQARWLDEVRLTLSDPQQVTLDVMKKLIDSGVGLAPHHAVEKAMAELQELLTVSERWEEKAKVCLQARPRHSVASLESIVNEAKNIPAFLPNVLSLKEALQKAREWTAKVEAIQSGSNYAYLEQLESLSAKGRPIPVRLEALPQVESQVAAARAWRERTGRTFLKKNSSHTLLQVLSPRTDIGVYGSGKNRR

IC50 (Jarid1A) [µM]	IC50 (Jarid1B) [µM]	IC50 (JMJD2C) [µM]	Compound
0.1 to 1	0.1 to 1	0.1 to 1	Cc1cccc(-c2ccnn2-c2cc(C(=O)O)ccn2)c1 [Example 13, 2-(5-m-tolyl-1H-pyrazol-1-yl)isonicotinic acid]
0.1 to 1	0.1 to 1	0.1 to 1	O=C(O)c1ccnc(-n2nccc2-c2ccc(F)c(F)c2)c1 [Example 15, 2-(5-(3,4-difluorophenyl)-1H-pyrazol-1-yl)isonicotinic acid]
0.1 to 1	0.1 to 1	0.1 to 1	O=C(O)c1ccnc(-n2nccc2-c2cccc(F)c2)c1 [Example 16, 2-(5-(3-fluorophenyl)-1H-pyrazol-1-yl)isonicotinic acid]
0.1 to 1	0.1 to 1	0.1 to 1	O=C(O)c1ccnc(-n2nccc2-c2ccc(O)cc2)c1 [Example 18, 2-(5-(4-hydroxyphenyl)-1H-pyrazol-1-yl)isonicotinic acid]
0.1 to 1	0.1 to 1	1 to 10	CS(=O)(=O)c1ccc(-c2ccnn2-c2cc(C(=O)O)ccn2)cc1 [Example 19, 2-(5-(4-(methylsulfonyl)phenyl)-1H-pyrazol-1-yl)isonicotinic acid]
0.1 to 1	0.1 to 1	1 to 10	COc1cc(-c2ccnn2-c2cc(C(=O)O)ccn2)ccc1C [Example 20, 2-(5-(3-methoxy-4-methylphenyl)-1H-pyrazol-1-yl)isonicotinic acid]
< 0.1	< 0.1	0.1 to 1	Cc1ccc(-c2ccnn2-c2cc(C(=O)O)ccn2)cc1O [Example 21, 2-(5-(3-hydroxy-4-methylphenyl)-1H-pyrazol-1-yl)isonicotinic acid]
0.1 to 1	0.1 to 1	1 to 10	COc1cc(-c2ccnn2-c2cc(C(=O)O)ccn2)ccc1Cl [Example 22, 2-(5-(4-chloro-3-methoxyphenyl)-1H-pyrazol-1-yl)isonicotinic acid]
0.1 to 1	0.1 to 1	1 to 10	O=C(O)c1ccnc(-n2nccc2-c2ccc(Cl)c(O)c2)c1 [Example 23, 2-(5-(4-chloro-3-hydroxyphenyl)-1H-pyrazol-1-yl)isonicotinic acid]
0.1 to 1	0.1 to 1	1 to 10	O=C(O)c1ccnc(-n2nccc2-c2ccc3cn[nH]c3c2)c1 [Example 24, 2-[5-(1H-indazol-6-yl)-1H-pyrazol-1-yl]pyridine-4-carboxylic acid]
1 to 10	1 to 10	1 to 10	O=C(O)c1ccnc(-n2nccc2-c2ccccc2)c1 [Example 26, 2-(5-phenyl-1H-pyrazol-1-yl)isonicotinic acid]
0.1 to 1	0.1 to 1	1 to 10	CS(=O)(=O)c1ccc(-c2ccnn2-c2cc(C(=O)O)ccn2)cc1O [Example 28, 2-(5-(3-hydroxy-4-(methylsulfonyl)phenyl)-1H-pyrazol-1-yl)isonicotinic acid]
1 to 10	1 to 10	1 to 10	Cc1ccc(-c2cc(C)nn2-c2cc(C(=O)O)ccn2)cc1 [Example 29, 2-(3-methyl-5-p-tolyl-1H-pyrazol-1-yl)isonicotinic acid]
1 to 10	0.1 to 1	1 to 10	CCc1cc(-c2ccc(C)cc2)n(-c2cc(C(=O)O)ccn2)n1 [Example 30, 2-(3-ethyl-5-p-tolyl-1H-pyrazol-1-yl)isonicotinic acid]
1 to 10	1 to 10	0.1 to 1	Cc1ccnn1-c1cc(C(=O)O)ccn1 [Example 31, 2-(5-methyl-1H-pyrazol-1-yl)isonicotinic acid]
1 to 10	1 to 10	> 10	O=C(O)c1ccnc(-n2nccc2CCc2ccccc2)c1 [Example 34, 2-(5-phenethyl-1H-pyrazol-1-yl)isonicotinic acid]
0.1 to 1	0.1 to 1	> 10	Cc1c(-c2ccccc2)cnn1-c1cc(C(=O)O)ccn1 [Example 36, 2-(5-methyl-4-phenyl-1H-pyrazol-1-yl)isonicotinic acid]
1 to 10	1 to 10	1 to 10	COc1cc(C)nn1-c1cc(C(=O)O)ccn1 [Example 37, 2-(5-methoxy-3-methyl-1H-pyrazol-1-yl)isonicotinic acid]
0.1 to 1	< 0.1	0.1 to 1	Cc1cc(OCc2ccccc2)n(-c2cc(C(=O)O)ccn2)n1 [Example 38, 2-(5-(benzyloxy)-3-methyl-1H-pyrazol-1-yl)isonicotinic acid]
< 0.1	< 0.1	< 0.1	O=C(O)c1ccnc(-n2nccc2OCc2cccc(F)c2)c1 [Example 41, 2-{5-[(3-fluorobenzyl)oxy]-1H-pyrazol-1-yl}pyridine-4-carboxylic acid]

IC50 (Jarid1A) [µM]	IC50 (Jarid1B) [µM]	IC50 (JMJD2C) [µM]	Compound
< 0.1	< 0.1	< 0.1	COc1cccc(COc2ccnn2-c2cc(C(=O)O)ccn2)c1 [Example 42, 2-{5-[(3-methoxybenzyl)oxy]-1H-pyrazol-1-yl}pyridine-4-carboxylic acid]
< 0.1	< 0.1	0.1 to 1	COc1ccc(COc2ccnn2-c2cc(C(=O)O)ccn2)cc1 [Example 43, 2-{5-[(4-methoxybenzyl)oxy]-1H-pyrazol-1-yl}pyridine-4-carboxylic acid]
1 to 10	1 to 10	> 10	CCCCc1ccnn1-c1cc(C(=O)O)ccn1 [Example 44, 2-(5-butyl-1H-pyrazol-1-yl)pyridine-4-carboxylic acid]
0.1 to 1	0.1 to 1	0.1 to 1	CCCCc1ccn(-c2cc(C(=O)O)ccn2)n1 [Example 45, 2-(3-butyl-1H-pyrazol-1-yl)pyridine-4-carboxylic acid]
0.1 to 1	0.1 to 1	1 to 10	O=C(O)c1ccnc(-n2nccc2-c2ccc(Br)cc2)c1 [Example 46, 2-[5-(4-bromophenyl)-1H-pyrazol-1-yl]pyridine-4-carboxylic acid]
0.1 to 1	0.1 to 1	1 to 10	CN(C)c1ccc(-c2ccnn2-c2cc(C(=O)O)ccn2)cc1 [Example 47, 2-{5-[4-(dimethylamino)phenyl]-1H-pyrazol-1-yl}pyridine-4-carboxylic acid]
< 0.1	0.1 to 1	1 to 10	Cc1ccc(-c2cc(N)nn2-c2cc(C(=O)O)ccn2)cc1 [Example 48, 2-[3-amino-5-(4-methylphenyl)-1H-pyrazol-1-yl]pyridine-4-carboxylic acid]
< 0.1	< 0.1	0.1 to 1	O=C(O)c1ccnc(-n2nccc2OCc2ccc(F)c(F)c2)c1 [Example 52, 2-{5-[(3,4-difluorobenzyl)oxy]-1H-pyrazol-1-yl}pyridine-4-carboxylic acid]
< 0.1	< 0.1	< 0.1	O=C(O)c1ccnc(-n2nccc2OCc2ccc(Cl)cc2)c1 [Example 53, 2-{5-[(4-chlorobenzyl)oxy]-1H-pyrazol-1-yl}pyridine-4-carboxylic acid]
< 0.1	< 0.1	0.1 to 1	O=C(O)c1ccnc(-n2nccc2OCc2ccc(C(F)(F)F)cc2)c1 [Example 54, 2-(5-{[4-(trifluoromethyl)benzyl]oxy}-1H-pyrazol-1-yl)pyridine-4-carboxylic acid]
< 0.1	< 0.1	< 0.1	O=C(O)c1ccnc(-n2nccc2OCc2cccc(Cl)c2)c1 [Example 58, 2-{5-[(3-chlorobenzyl)oxy]-1H-pyrazol-1-yl}pyridine-4-carboxylic acid]
< 0.1	< 0.1	< 0.1	O=C(O)c1ccnc(-n2nccc2OCc2ccccc2F)c1 [Example 59, 2-{5-[(2-fluorobenzyl)oxy]-1H-pyrazol-1-yl}pyridine-4-carboxylic acid]
< 0.1	< 0.1	0.1 to 1	O=C(O)c1ccnc(-n2nccc2OCc2cccnc2)c1 [Example 60, 2-[5-(pyridin-3-ylmethoxy)-1H-pyrazol-1-yl]pyridine-4-carboxylic acid]
< 0.1	< 0.1	< 0.1	O=C(O)c1ccnc(-n2nccc2OCc2ccncc2)c1 [Example 61, 2-[5-(pyridin-4-ylmethoxy)-1H-pyrazol-1-yl]pyridine-4-carboxylic acid]
< 0.1	< 0.1	0.1 to 1	O=C(O)c1ccnc(-n2nccc2OCC2CCC(F)(F)CC2)c1 [Example 71, 2-{5-[(4,4-difluorocyclohexyl)methoxy]-1H-pyrazol-1-yl}pyridine-4-carboxylic acid]
< 0.1	< 0.1	< 0.1	O=C(O)c1ccnc(-n2nccc2OCc2cccc(O)c2)c1 [Example 73, 2-{5-[(3-hydroxybenzyl)oxy]-1H-pyrazol-1-yl}pyridine-4-carboxylic acid]
< 0.1	< 0.1	< 0.1	O=C(O)c1ccnc(-n2nccc2OCc2ccc(Cl)cc2F)c1 [Example 75, 2-{5-[(4-chloro-2-fluorobenzyl)oxy]-1H-pyrazol-1-yl}pyridine-4-carboxylic acid]
< 0.1	< 0.1	< 0.1	O=C(O)c1ccnc(-n2nccc2OCc2ccc(F)c(Cl)c2)c1 [Example 76, 2-{5-[(3-chloro-4-fluorobenzyl)oxy]-1H-pyrazol-1-yl}pyridine-4-carboxylic acid]
< 0.1	< 0.1	0.1 to 1	O=C(O)c1ccnc(-n2nccc2OCc2ccc(C3CC3)cc2)c1 [Example 77, 2-{5-[(4-cyclopropylbenzyl)oxy]-1H-pyrazol-1-yl}pyridine-4-carboxylic acid]

Compound	IC50 (Jarid1A) [µM]	IC50 (Jarid1B) [µM]	IC50 (JMJD2C) [µM]
2-{5-[(2-methyl-2H-indazol-5-yl)methoxy]-1H-pyrazol-1-yl}pyridine-4-carboxylic acid [Example 51]	< 0.1	< 0.1	0.1 to 1
